Calls of active or inactive are those of the source. The calls are words filed in the database; no cut-off is given here.
Assays:
[1] = system: Staphylococcus aureus; assay: Antibiofilm activity against Staphylococcus aureus ATCC 6538 assessed as CFU counts at 400 ug/mL pretreated with HA for 24 hrs followed by organism inoculation measured after 24 hrs (reference value: 4.5 x 10^10CFU); assay type: functional
[2] = system: Staphylococcus aureus; assay: Potency index, ratio of ciprofloxacin bactericidal concentration to compound bactericidal concentration for Staphylococcus aureus ATCC 6538; assay type: functional

## O=C(O)c1cn(C2CC2)c2cc(N3CCN(C(=O)Oc4ccc(CC(P(=O)(O)O)P(=O)(O)O)cc4)CC3)c(F)cc2c1=O
[1]
  Activity: Active
[2]
  Ratio: 20

Reference: ChEMBL document CHEMBL4014261, “Design, Synthesis, and Antimicrobial Evaluation of a Novel Bone-Targeting Bisphosphonate-Ciprofloxacin Conjugate for the Treatment of Osteomyelitis Biofilms” (J Med Chem, 2017)
